In PubChem BioAssay AID248 (DTP/NCI, 2004) one finds T/C data, which are given here for 19 compounds.

“And” between values parts separate entries of the source, which are not always exact repeats. Identical values can stand only once. Inconclusive results and toxic doses are left out.

The subject of the test is L1210 leukemia ip in BDF1 mice, survival T/C. In words: NCI In Vivo Anticancer Drug Screen. Data for tumor model L1210 Leukemia (intraperitoneal) in B6D2F1 (BDF1) mice. The note with it: endpoint: mean survival time, higher = longer survival. In a few lines:
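Tumor was transplanted into mice, which were then dosed with test compound or vehicle alone. Survival was recorded for each group, and the treated figure was expressed relative to the control figure.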

Where [1] appears, read: dose: 100.0 mg/kg/injection, schedule: Q04DX003 (ip), vehicle: saline with Tween-80.
Setting [2] is: dose: 100.0 mg/kg/injection, schedule: Q01DX009 (ip), vehicle: Klucel (hydroxypropylcellulose) (HPC).
Where [3] appears, read: dose: 100.0 mg/kg/injection, schedule: Q04DX003 (ip), vehicle: saline.
[4] abbreviates: dose: 200.0 mg/kg/injection, schedule: Q01DX009 (ip), vehicle: Klucel (hydroxypropylcellulose) (HPC).
The mark [5] stands for this setting: dose: 200.0 mg/kg/injection, schedule: Q04DX003 (ip), vehicle: saline.
Where [6] appears, read: dose: 400.0 mg/kg/injection, schedule: Q04DX003 (ip), vehicle: saline.
The mark [7] stands for this setting: dose: 100.0 mg/kg/injection, schedule: Q01DX001 (ip), vehicle: Klucel (hydroxypropylcellulose) (HPC).
[8] abbreviates: dose: 200.0 mg/kg/injection, schedule: Q01DX001 (ip), vehicle: Klucel (hydroxypropylcellulose) (HPC).
The mark [9] stands for this setting: dose: 400.0 mg/kg/injection, schedule: Q01DX001 (ip), vehicle: Klucel (hydroxypropylcellulose) (HPC).
[10] abbreviates: dose: 100.0 mg/kg/injection, schedule: Q01DX009 (ip), vehicle: saline with Tween-80.
Setting [11] is: dose: 200.0 mg/kg/injection, schedule: Q01DX009 (ip), vehicle: saline with Tween-80.
Setting [12] is: dose: 25.0 mg/kg/injection, schedule: Q01DX009 (ip), vehicle: saline.
The mark [13] stands for this setting: dose: 50.0 mg/kg/injection, schedule: Q01DX009 (ip), vehicle: saline.
[14] abbreviates: dose: 100.0 mg/kg/injection, schedule: Q04DX002 (ip), vehicle: Klucel (hydroxypropylcellulose) (HPC).

Consider `CSc1nnc2sc(=S)[nH]n12`, for which the T/C (dose: 100.0 mg/kg/injection, schedule: Q01DX001 (ip), vehicle: carboxymethylcellulose (CMC)) is 105 % of control; the T/C (dose: 200.0 mg/kg/injection, schedule: Q01DX001 (ip), vehicle: carboxymethylcellulose (CMC)) is 90 % of control; the T/C (dose: 400.0 mg/kg/injection, schedule: Q01DX001 (ip), vehicle: carboxymethylcellulose (CMC)) is 94 % of control.
With `CCCn1c(=O)cc(C)c2ccccc21`, the T/C runs as follows: (dose: 100.0 mg/kg/injection, schedule: Q01DX001 (ip), vehicle: other) 105 % of control; (dose: 200.0 mg/kg/injection, schedule: Q01DX001 (ip), vehicle: other) 90 % of control; (dose: 400.0 mg/kg/injection, schedule: Q01DX001 (ip), vehicle: other) 91 % of control.
As for `C/C(=N/NC(N)=S)c1cccc(C(F)(F)F)c1`, the T/C is 97 % of control (dose: 37.5 mg/kg/injection, schedule: Q01DX009 (ip), vehicle: Klucel (hydroxypropylcellulose) (HPC)) and 95 % of control (dose: 75.0 mg/kg/injection, schedule: Q01DX009 (ip), vehicle: Klucel (hydroxypropylcellulose) (HPC)).
For the compound `O=C1OC(c2ccc3c(c2)OCO3)C(C(=O)CCl)c2ccccc21` (stereo unspecified), the T/C reads like this: under setting [1], 97 % of control; (dose: 200.0 mg/kg/injection, schedule: Q04DX003 (ip), vehicle: saline with Tween-80) 93 % of control.
On to `S=C(Nc1ccc(Cl)c(Cl)c1)SCc1ccccc1`, for which the T/C is 101 % of control (dose: 75.0 mg/kg/injection, schedule: Q04DX003 (ip), vehicle: saline); 104 % of control (dose: 150.0 mg/kg/injection, schedule: Q04DX003 (ip), vehicle: saline); 101 % of control (dose: 300.0 mg/kg/injection, schedule: Q04DX003 (ip), vehicle: saline).
As to `COc1ccc(C=O)c(Cl)c1OC`, the T/C is 94 % of control under setting [2]; 92 % of control under setting [3]; 94 % of control under setting [4]; 108 % of control under setting [5]; 98 % of control under setting [6].
Take `O=C(/C=C/c1ccc(Cl)c(Cl)c1)c1ccc(Cl)cc1`: the T/C by setting is: (dose: 6.25 mg/kg/injection, schedule: Q01DX009 (ip), vehicle: saline with Tween-80) 97 % of control; (dose: 6.25 mg/kg/injection, schedule: Q04DX003 (ip), vehicle: saline with Tween-80) 110 % of control; (dose: 12.5 mg/kg/injection, schedule: Q01DX009 (ip), vehicle: saline with Tween-80) 97 % of control; (dose: 12.5 mg/kg/injection, schedule: Q04DX003 (ip), vehicle: saline with Tween-80) 96 % of control; (dose: 25.0 mg/kg/injection, schedule: Q01DX009 (ip), vehicle: saline with Tween-80) 95 % of control; (dose: 25.0 mg/kg/injection, schedule: Q04DX003 (ip), vehicle: saline with Tween-80) 94 % of control and 89 % of control. In addition, the T/C under setting [1] is 87 % of control and 88 % of control.
`CCCCCCCCCCCCCCCCCCN1CCS(=O)CC1`: the T/C under setting [7] was 98 % of control, the T/C under setting [8] was 100 % of control and the T/C under setting [9] was 102 % of control.
As to `COc1ccc2c(c1)CC[C@@H]1[C@@H]2CC[C@]2(C)[C@@H](O)C(=O)C[C@@H]12`, the T/C is 90 % of control under setting [10]; 94 % of control under setting [3]; 92 % of control under setting [11]; 88 % of control under setting [5]; 90 % of control (dose: 400.0 mg/kg/injection, schedule: Q01DX009 (ip), vehicle: saline with Tween-80); 91 % of control under setting [6].
For the compound `CC(c1ccc(Br)cc1)N(C)C` (stereo unspecified), the T/C is 102 % of control (dose: 10.0 mg/kg/injection, schedule: Q01DX001 (ip), vehicle: saline); 93 % of control (dose: 20.0 mg/kg/injection, schedule: Q01DX001 (ip), vehicle: saline); 98 % of control (dose: 40.0 mg/kg/injection, schedule: Q01DX001 (ip), vehicle: saline); 98 % of control (dose: 80.0 mg/kg/injection, schedule: Q01DX001 (ip), vehicle: saline).
On to `Cc1cncn1CC(=O)c1ccccc1`, for which the T/C was 104 % of control and 105 % of control under setting [12]; 101 % of control and 105 % of control (dose: 25.0 mg/kg/injection, schedule: Q04DX002 (ip), vehicle: saline); 103 % of control and 104 % of control under setting [13]; 101 % of control and 108 % of control (dose: 50.0 mg/kg/injection, schedule: Q04DX002 (ip), vehicle: saline); 93 % of control under setting [14]; 103 % of control (dose: 100.0 mg/kg/injection, schedule: Q04DX002 (ip), vehicle: saline).
Turning to `c1ccc(C(N2CCN(c3ccccc3)CC2)N2CCN(c3ccccc3)CC2)cc1`, the T/C reads like this: under setting [14], 94 % of control; (dose: 200.0 mg/kg/injection, schedule: Q04DX002 (ip), vehicle: Klucel (hydroxypropylcellulose) (HPC)) 94 % of control; (dose: 400.0 mg/kg/injection, schedule: Q04DX002 (ip), vehicle: Klucel (hydroxypropylcellulose) (HPC)) 94 % of control.
`C(=C\c1ccccc1)/CSc1ncnc2nc[nH]c12`: the T/C (dose: 62.5 mg/kg/injection, schedule: Q01DX015 (ip), vehicle: saline) was 106 % of control; the T/C (dose: 125.0 mg/kg/injection, schedule: Q01DX015 (ip), vehicle: saline) is 116 % of control; the T/C (dose: 250.0 mg/kg/injection, schedule: Q01DX015 (ip), vehicle: saline) was 104 % of control; the T/C (dose: 500.0 mg/kg/injection, schedule: Q01DX015 (ip), vehicle: saline) was 166 % of control.
`CC1=CC(=O)C(C)(C)CC1`: the T/C by setting is: (dose: 50.0 mg/kg/injection, schedule: Q01DX009 (ip), vehicle: saline with Tween-80) 96 % of control; under setting [10], 92 % of control; under setting [11], 100 % of control.
Regarding `CC1(C)N=C(N)N=C(N)N1c1ccc(CC(CCc2ccccc2)C(=O)Nc2ccc(S(=O)(=O)F)cc2)cc1` (stereo unspecified), the T/C is 90 % of control under setting [7], 97 % of control under setting [8] and 90 % of control under setting [9].
As for `C(=NC12CC3CC(CC(C3)C1)C2)c1ccccc1`, the T/C under setting [12] is 106 % of control; the T/C under setting [13] was 97 % of control; the T/C (dose: 200.0 mg/kg/injection, schedule: Q01DX009 (ip), vehicle: saline) was 100 % of control; the T/C (dose: 400.0 mg/kg/injection, schedule: Q01DX009 (ip), vehicle: saline) is 104 % of control.
In the case of `O=C(O)c1cocc1C(=O)N1Cc2cc3ccccc3nc2C1`, the T/C is, setting by setting: (dose: 10.0 mg/kg/injection, schedule: Q04DX003 (ip), vehicle: saline) 103 % of control; (dose: 20.0 mg/kg/injection, schedule: Q04DX003 (ip), vehicle: saline) 97 % of control; (dose: 40.0 mg/kg/injection, schedule: Q04DX003 (ip), vehicle: saline) 105 % of control; (dose: 80.0 mg/kg/injection, schedule: Q04DX003 (ip), vehicle: saline) 100 % of control; (dose: 160.0 mg/kg/injection, schedule: Q04DX003 (ip), vehicle: saline) 103 % of control.
In the case of `CCOC(=O)C1=C(C)NC(=O)NC1c1ccc(N(CCCl)CCCl)cc1` (stereo unspecified), the T/C under setting [2] was 93 % of control; the T/C (dose: 100.0 mg/kg/injection, schedule: Q04DX003 (ip), vehicle: Klucel (hydroxypropylcellulose) (HPC)) is 97 % of control; the T/C under setting [4] is 112 % of control; the T/C (dose: 200.0 mg/kg/injection, schedule: Q04DX003 (ip), vehicle: Klucel (hydroxypropylcellulose) (HPC)) was 90 % of control; the T/C (dose: 400.0 mg/kg/injection, schedule: Q01DX009 (ip), vehicle: Klucel (hydroxypropylcellulose) (HPC)) was 104 % of control; the T/C (dose: 400.0 mg/kg/injection, schedule: Q04DX003 (ip), vehicle: Klucel (hydroxypropylcellulose) (HPC)) is 101 % of control.
For `CC12CC3(C)CC(C)(C1)CC(NC(=O)N(CCF)N=O)(C2)C3`, the T/C is 113 % of control (dose: 30.0 mg/kg/injection, schedule: Q01DX001 (ip), vehicle: other); 117 % of control (dose: 40.0 mg/kg/injection, schedule: Q01DX001 (ip), vehicle: other); 151 % of control (dose: 187.0 mg/kg/injection, schedule: Q01DX001 (ip), vehicle: other); 87 % of control (dose: 375.0 mg/kg/injection, schedule: Q01DX001 (ip), vehicle: other).
